Values quoted from earlier work as cited in patent US20070134724A1, “Phosphorylation of tau by abl” (priority 2005, published 2007).
Where a name gives a salt, the structure may show the parent alone. Read-outs that look alike come from different tables or passages of the source.

Experiments:
[1] = system: Aβ; conditions: guinea pig brains
[2] = system: Aβ; conditions: neurons

In the case of `Cc1ccc(NC(=O)c2ccc(CN3CCN(C)CC3)cc2)cc1Nc1nccc(-c2cccnc2)n1` [Gleevec, imatinib mesylate], the “production of Aβ” value [1] is listed as “inhibits” and the “production of Aβ” value [2] is listed as “inhibits”.
